Legend:
[1] = test system: AsPC-1 (G12D); test: In vitro cell proliferation inhibition test (CellTiter-Glo), AsPC-1; format: cell-based; details: Homo sapiens, ASPC1, AsPC-1 pancreas cell line, KRAS (p.G12D), 72 h co-incubation
How it was run: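 Cells were seeded at 1000-5000/well by doubling time and cultured overnight at 37 °C, 5% CO2. They were then exposed for 72 h to 10-point, 3-fold compound dilutions (final top 10 μM), and viability was read by CellTiter-Glo luminescence. IC50 came from normalized signals fitted by four-parameter regression.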

[2] = test system: SW480 (G12V); test: In vitro cell proliferation inhibition test (CellTiter-Glo), SW480; format: cell-based; details: Homo sapiens, SW480 colon cell line, KRAS (p.G12V), 72 h co-incubation
Text: Test Example 1: In Vitro Cell Proliferation Inhibition Test
Due to the diversity of RAS mutations and in order to evaluate the activity of compounds in different RAS mutation cell lines, we selected KRAS^WT, KRAS^G12C, KRAS^G12D, KRAS^G12V and BRAF mutation cell lines (see the table below) for in vitro activity evaluation and screening of compounds.
Protocol: CellTiter-Glo® Cell Luminescent Viability Assay (Promega)
According to the doubling time of different cell lines, different numbers of cells (1000-5000 cells/well) were seeded in 96-well plates containing 180 μl of corresponding culture medium and cultured overnight in a cell culture incubator at 37° C. with 5% CO2. On the second day, the test compound was pre-diluted 3-fold with culture medium, with the highest concentration being 100 μM, for a total of 10 concentration gradients; then 20 μl of culture medium containing different concentrations of the compound was added to the cells in the 96-well plate to ensure that the final concentration of the compound was up to 10 μM, with 10 concentration gradients of 3-fold dilution. After the cells and compounds were co-incubated for 72 h, the 96-well plate was removed from the incubator and equilibrated at room temperature for 30 min. Then, 25 μl of CellTiter-Glo® Reagent was added to each well and mixed thoroughly. The mixture was incubated at room temperature for 10 min, and then 100 μl of the sample was transferred to a white 96-well plate (OptiPlate™-96, PerkinElmer). The […] signal value was read using a multi-function microplate reader (SpectraMax® i3x, Molecular devices). The signal values were then standardized, and the curve was fitted using a four-parameter regression equation to calculate the half maximal inhibitory concentration (IC50) of the compound on the cell line.

IC50 [1] [nM]	IC50 [2] [nM]	Structure (SMILES)
3.4	3	CCn1c(-c2cc(-c3nc(C)n(C)n3)cnc2[C@H](C)OC)c2c3cc(ccc31)-c1csc(n1)C[C@H](NC(=O)[C@H]1C[C@@H]1C)C(=O)N1CCC[C@H](N1)C(=O)OCC(C)(C)C2 (atropisomer, axis not shown) [Compound 20, (1S,2S)-N-((6^3S,4S,Z)-1^2-(5-(4,5-dimethyl-4H-1,2,4-triazol-3-yl)-2-((S)-1-methoxyethyl)pyridin-3-yl)-1^1-ethyl-10,10-dimethyl-5,7-dioxo-6^1,6^2,6^3,6^4,6^5,6^6-hexahydro-1^1H-8-oxa-2(4,2)-thiazola-1(5,3)-indola-6(1,3)-pyridazinacycloundecaphane-4-yl)-2-methylcyclopropane-1-carboxamide]
11	15	CCn1c(-c2cc(-c3nc(C)no3)cnc2[C@H](C)OC)c2c3cc(ccc31)-c1csc(n1)C[C@H](NC(=O)[C@H]1C[C@@H]1C)C(=O)N1CCC[C@H](N1)C(=O)OCC(C)(C)C2 (atropisomer, axis not shown) [Compound 21, (1S,2S)-N-((6^3S,4S,Z)-1^1-ethyl-1^2-(2-((S)-1-methoxyethyl)-5-(3-methyl-1,2,4-oxadiazol-5-yl)pyridin-3-yl)-10,10-dimethyl-5,7-dioxo-6^1,6^2,6^3,6^4,6^5,6^6-hexahydro-1^1H-8-oxa-2(4,2)-thiazola-1(5,3)-indola-6(1,3)-pyridazinacycloundecaphane-4-yl)-2-methylcyclopropane-1-carboxamide]
11	10	CCn1c(-c2cc(-c3cc(CN4CCOCC4)on3)cnc2[C@H](C)OC)c2c3cc(ccc31)-c1csc(n1)C[C@H](NC(=O)[C@H]1C[C@@H]1C)C(=O)N1CCC[C@H](N1)C(=O)OCC(C)(C)C2 (atropisomer, axis not shown) [Compound 22, (1S,2S)-N-((6^3S,4S,Z)-1^1-ethyl-1^2-(2-((S)-1-methoxyethyl)-5-(5-(morpholinomethyl)isoxazol-3-yl)pyridin-3-yl)-10,10-dimethyl-5,7-dioxo-6^1,6^2,6^3,6^4,6^5,6^6-hexahydro-1^1H-8-oxa-2(4,2)-thiazola-1(5,3)-indola-6(1,3)-pyridazinacycloundecaphane-4-yl)-2-methylcyclopropane-1-carboxamide]
42	117	CCn1c(-c2cc(-c3cc(CNC)on3)cnc2[C@H](C)OC)c2c3cc(ccc31)-c1csc(n1)C[C@H](NC(=O)[C@H]1C[C@@H]1C)C(=O)N1CCC[C@H](N1)C(=O)OCC(C)(C)C2 (atropisomer, axis not shown) [Compound 23, (1S,2S)-N-((6^3S,4S,Z)-1^1-ethyl-1^2-(2-((S)-1-methoxyethyl)-5-(5-((methylamino)methyl)isoxazol-3-yl)pyridin-3-yl)-10,10-dimethyl-5,7-dioxo-6^1,6^2,6^3,6^4,6^5,6^6-hexahydro-1^1H-8-oxa-2(4,2)-thiazola-1(5,3)-indola-6(1,3)-pyridazinacycloundecaphane-4-yl)-2-methylcyclopropane-1-carboxamide]
26	19	CCn1c(-c2cc(-c3cc([C@H]4CCCN4C)on3)cnc2[C@H](C)OC)c2c3cc(ccc31)-c1csc(n1)C[C@H](NC(=O)[C@H]1C[C@@H]1C)C(=O)N1CCC[C@H](N1)C(=O)OCC(C)(C)C2 (atropisomer, axis not shown) [Compound 24, (1S,2S)-N-((6^3S,4S,Z)-1^1-ethyl-1^2-(2-((S)-1-methoxyethyl)-5-(5-((R)-1-methylpyrrolidin-2-yl)isoxazol-3-yl)pyridin-3-yl)-10,10-dimethyl-5,7-dioxo-6^1,6^2,6^3,6^4,6^5,6^6-hexahydro-1^1H-8-oxa-2(4,2)-thiazola-1(5,3)-indola-6(1,3)-pyridazinacycloundecaphane-4-yl)-2-methylcyclopropane-1-carboxamide]
20	22	CCn1c(-c2cc(-c3cc([C@@H]4CCCN4C)on3)cnc2[C@H](C)OC)c2c3cc(ccc31)-c1csc(n1)C[C@H](NC(=O)[C@H]1C[C@@H]1C)C(=O)N1CCC[C@H](N1)C(=O)OCC(C)(C)C2 (atropisomer, axis not shown) [Compound 25, (1S,2S)-N-((6^3S,4S,Z)-1^1-ethyl-1^2-(2-((S)-1-methoxyethyl)-5-(5-((S)-1-methylpyrrolidin-2-yl)isoxazol-3-yl)pyridin-3-yl)-10,10-dimethyl-5,7-dioxo-6^1,6^2,6^3,6^4,6^5,6^6-hexahydro-1^1H-8-oxa-2(4,2)-thiazola-1(5,3)-indola-6(1,3)-pyridazinacycloundecaphane-4-yl)-2-methylcyclopropane-1-carboxamide]
10	2.5	CCn1c(-c2cc(-c3cc([C@H]4CN(C)CCO4)on3)cnc2[C@H](C)OC)c2c3cc(ccc31)-c1csc(n1)C[C@H](NC(=O)[C@H]1[C@H](C)[C@@H]1C)C(=O)N1CCC[C@H](N1)C(=O)OCC(C)(C)C2 (atropisomer, axis not shown) [Compound 26, (1r,2R,3S)-N-((6^3S,4S,Z)-1^1-ethyl-1^2-(2-((S)-1-methoxyethyl)-5-(5-((R)-4-methylmorpholin-2-yl)isoxazol-3-yl)pyridin-3-yl)-10,10-dimethyl-5,7-dioxo-6^1,6^2,6^3,6^4,6^5,6^6-hexahydro-1^1H-8-oxa-2(4,2)-thiazola-1(5,3)-indola-6(1,3)-pyridazinacycloundecaphane-4-yl)-2,3-dimethylcyclopropane-1-carboxamide]
1.1	1.8	CCn1c(-c2cc(-c3cc([C@@H]4CN(C)CCO4)on3)cnc2[C@H](C)OC)c2c3cc(ccc31)-c1csc(n1)C[C@H](NC(=O)[C@H]1[C@H](C)[C@@H]1C)C(=O)N1CCC[C@H](N1)C(=O)OCC(C)(C)C2 (atropisomer, axis not shown) [Compound 27, (1r,2R,3S)-N-((6^3S,4S,Z)-1^1-ethyl-1^2-(2-((S)-1-methoxyethyl)-5-(5-((S)-4-methylmorpholin-2-yl)isoxazol-3-yl)pyridin-3-yl)-10,10-dimethyl-5,7-dioxo-6^1,6^2,6^3,6^4,6^5,6^6-hexahydro-1^1H-8-oxa-2(4,2)-thiazola-1(5,3)-indola-6(1,3)-pyridazinacycloundecaphane-4-yl)-2,3-dimethylcyclopropane-1-carboxamide]
3.2	10	CCn1c(-c2cc(-c3cc([C@@H]4CCN(C)C4)on3)cnc2[C@H](C)OC)c2c3cc(ccc31)-c1csc(n1)C[C@H](NC(=O)[C@H]1[C@H](C)[C@@H]1C)C(=O)N1CCC[C@H](N1)C(=O)OCC(C)(C)C2 (atropisomer, axis not shown) [Compound 29, (1r,2R,3S)-N-((6^3S,4S,Z)-1^1-ethyl-1^2-(2-((S)-1-methoxyethyl)-5-(5-((R)-1-methylpyrrolidin-3-yl)isoxazol-3-yl)pyridin-3-yl)-10,10-dimethyl-5,7-dioxo-6^1,6^2,6^3,6^4,6^5,6^6-hexahydro-1^1H-8-oxa-2(4,2)-thiazola-1(5,3)-indola-6(1,3)-pyridazinacycloundecaphane-4-yl)-2,3-dimethylcyclopropane-1-carboxamide]
0.58	0.44	CCn1c(-c2cc(-c3cc(C4CCN(C)CC4)on3)cnc2[C@H](C)OC)c2c3cc(ccc31)-c1csc(n1)C[C@H](NC(=O)[C@H]1C[C@@H]1C)C(=O)N1CCC[C@H](N1)C(=O)OCC(C)(C)C2 (atropisomer, axis not shown) [Compound 30, (1S,2S)-N-((6^3S,4S,Z)-1^1-ethyl-1^2-(2-((S)-1-methoxyethyl)-5-(5-(1-methylpiperidin-4-yl)isoxazol-3-yl)pyridin-3-yl)-10,10-dimethyl-5,7-dioxo-6^1,6^2,6^3,6^4,6^5,6^6-hexahydro-1^1H-8-oxa-2(4,2)-thiazola-1(5,3)-indola-6(1,3)-pyridazinacycloundecaphane-4-yl)-2-methylcyclopropane-1-carboxamide]
1.6	2	CCn1c(-c2cc(-c3cc(C4CN(C)C4)on3)cnc2[C@H](C)OC)c2c3cc(ccc31)-c1csc(n1)C[C@H](NC(=O)[C@H]1C[C@@H]1C)C(=O)N1CCC[C@H](N1)C(=O)OCC(C)(C)C2 (atropisomer, axis not shown) [Compound 31, (1S,2S)-N-((6^3S,4S,Z)-1^1-ethyl-1^2-(2-((S)-1-methoxyethyl)-5-(5-(1-methylazetidin-3-yl)isoxazol-3-yl)pyridin-3-yl)-10,10-dimethyl-5,7-dioxo-6^1,6^2,6^3,6^4,6^5,6^6-hexahydro-1^1H-8-oxa-2(4,2)-thiazola-1(5,3)-indola-6(1,3)-pyridazinacycloundecaphane-4-yl)-2-methylcyclopropane-1-carboxamide]

— patent US20260193271A1, “PAN-KRAS INHIBITOR COMPOUND” (ADLAI NORTYE BIOPHARMA CO., LTD., priority 2022, published 2026)
